# In ChEMBL document CHEMBL4330122, “Modified ribavirin analogues as antiviral agents against Junín virus” (Bioorg Med Chem Lett, 2019):
# Assays:
# [1] = tested on: Junin virus; assay type: functional, organism-based; details: Mammarenavirus juninense, IV4454, Vero, 48 h
# [2] = in vitro; details: human, A549 cells
# [3] = Cytotoxicity against human A549 cells assessed as reduction in cell viability after 48 hrs by MTT assay; assay type: cell-based
# [4] = tested on: Junin virus; assay type: functional, organism-based; details: Mammarenavirus juninense, IV4454, A549, 48 h
# [5] = Cytotoxicity against African green monkey Vero cells assessed as reduction in cell viability after 48 hrs by MTT assay; assay type: cell-based; details: chlorocebus sabaeus
# [6] = in vitro; details: monkey, Vero cells
# [7] = Solubility of the compound in water; assay type: physicochemical
Structure (SMILES),EC50 [1] [µM],selectivity ratio [2],CC50 at 48 h [3] [µM],EC50 [4] [µM],CC50 at 48 h [5] [µM],selectivity ratio [6],solubility [7] [mg/mL]
OCc1cn([C@@H]2O[C@H](CO)[C@@H](O)[C@H]2O)nn1,215,> 19.7,> 1000,50.7,> 1000,> 4.7,–
CC1(C)O[C@@H]2[C@H](O1)[C@@H](Cn1cc(COC[C@H]3OC(O)[C@H](O)[C@@H](O)[C@H]3O)nn1)O[C@H]2n1cc(COCC(COCc2cn([C@@H]3O[C@H](Cn4cc(COC[C@H]5OC(O)[C@H](O)[C@@H](O)[C@H]5O)nn4)[C@H]4OC(C)(C)O[C@H]43)nn2)(COCc2cn([C@@H]3O[C@H](Cn4cc(COC[C@H]5OC(O)[C@H](O)[C@@H](O)[C@H]5O)nn4)[C@H]4OC(C)(C)O[C@H]43)nn2)COCc2cn([C@@H]3O[C@H](Cn4cc(COC[C@H]5OC(O)[C@H](O)[C@@H](O)[C@H]5O)nn4)[C@H]4OC(C)(C)O[C@H]43)nn2)nn1 (stereo partly drawn),117,> 8.4,> 1000,119,> 1000,> 8.6,> 100
CCCCn1cc(COC[C@@H](O)[C@H](O)[C@H](O)[C@@H](O)CO)nn1,> 500,–,> 1000,> 500,> 1000,–,> 100
CCCCn1cc(COC[C@H]2OC(O)[C@H](O)[C@@H](O)[C@H]2O)nn1 (stereo partly drawn),371,> 8.9,> 1000,113,> 1000,> 2.7,> 100
CC1(C)O[C@@H]2[C@H](O1)[C@@H](Cn1cc(COC[C@@H](O)[C@H](O)[C@H](O)[C@@H](O)CO)nn1)O[C@H]2n1cc(COCC(COCc2cn([C@@H]3O[C@H](Cn4cc(COC[C@@H](O)[C@H](O)[C@H](O)[C@@H](O)CO)nn4)[C@H]4OC(C)(C)O[C@H]43)nn2)(COCc2cn([C@@H]3O[C@H](Cn4cc(COC[C@H](O)[C@@H](O)[C@@H](O)[C@H](O)CO)nn4)[C@H]4OC(C)(C)O[C@H]43)nn2)COCc2cn([C@@H]3O[C@H](Cn4cc(COC[C@H](O)[C@@H](O)[C@@H](O)[C@H](O)CO)nn4)[C@H]4OC(C)(C)O[C@H]43)nn2)nn1,> 500,–,> 1000,> 500,> 1000,–,> 100
OC[C@@H](O)[C@H](O)[C@H](O)[C@@H](O)COCc1cn(CC(Cn2cc(COC[C@@H](O)[C@H](O)[C@H](O)[C@@H](O)CO)nn2)(Cn2cc(COC[C@@H](O)[C@H](O)[C@H](O)[C@@H](O)CO)nn2)Cn2cc(COC[C@@H](O)[C@H](O)[C@H](O)[C@@H](O)CO)nn2)nn1,> 500,–,> 1000,> 500,> 1000,–,> 100
CC(=O)OC[C@H]1O[C@@H](n2cc(COCC(COCc3cn([C@@H]4O[C@H](COC(C)=O)[C@@H](OC(C)=O)[C@H]4OC(C)=O)nn3)(COCc3cn([C@@H]4O[C@H](COC(C)=O)[C@@H](OC(C)=O)[C@H]4OC(C)=O)nn3)COCc3cn([C@@H]4O[C@H](COC(C)=O)[C@@H](OC(C)=O)[C@H]4OC(C)=O)nn3)nn2)[C@H](OC(C)=O)[C@@H]1OC(C)=O,> 500,–,> 1000,> 500,> 1000,–,–
CC1(C)O[C@@H]2[C@H](O1)[C@@H](CO)O[C@H]2n1cc(CO)nn1,51.3,> 11.6,> 1000,86.4,> 1000,> 19.5,–
CC1(C)O[C@H]2[C@H](OCc3cn(CC(Cn4cc(CO[C@@H]5O[C@H](Cn6cc(COC[C@@H](O)[C@H](O)[C@H](O)[C@@H](O)CO)nn6)[C@H]6OC(C)(C)O[C@@H]56)nn4)(Cn4cc(CO[C@@H]5O[C@H](Cn6cc(COC[C@H](O)[C@@H](O)[C@@H](O)[C@H](O)CO)nn6)[C@H]6OC(C)(C)O[C@@H]56)nn4)Cn4cc(CO[C@@H]5O[C@H](Cn6cc(COC[C@H](O)[C@@H](O)[C@@H](O)[C@H](O)CO)nn6)[C@H]6OC(C)(C)O[C@@H]56)nn4)nn3)O[C@H](Cn3cc(COC[C@@H](O)[C@H](O)[C@H](O)[C@@H](O)CO)nn3)[C@H]2O1,> 500,> 3.2,> 1000,314,> 1000,–,> 100
CCCCn1cc(CO[C@@H]2O[C@H](CN=[N+]=[N-])[C@H]3OC(C)(C)O[C@@H]23)nn1,13.2,38.5,525,13.6,762,57.9,–
CC(=O)OC[C@H]1O[C@@H](n2cc(CO)nn2)[C@H](OC(C)=O)[C@@H]1OC(C)=O,130,> 3.1,> 1000,322,> 1000,> 7.7,–
CCCCn1cc(CO[C@@H]2O[C@H](CO)[C@H]3OC(C)(C)O[C@@H]23)nn1,57.2,> 17.9,> 1000,55.9,> 1000,> 17.5,–
OC1O[C@H](COCc2cn(CC(Cn3cc(COC[C@H]4OC(O)[C@H](O)[C@@H](O)[C@H]4O)nn3)(Cn3cc(COC[C@H]4OC(O)[C@H](O)[C@@H](O)[C@H]4O)nn3)Cn3cc(COC[C@H]4OC(O)[C@H](O)[C@@H](O)[C@H]4O)nn3)nn2)[C@H](O)[C@H](O)[C@H]1O (stereo partly drawn),371,> 3.2,> 1000,314,> 1000,> 2.7,> 100
CC1(C)O[C@H]2[C@H](OCc3cn(CC(Cn4cc(CO[C@@H]5O[C@H](CO)[C@H]6OC(C)(C)O[C@@H]56)nn4)(Cn4cc(CO[C@@H]5O[C@H](CO)[C@H]6OC(C)(C)O[C@@H]56)nn4)Cn4cc(CO[C@@H]5O[C@H](CO)[C@H]6OC(C)(C)O[C@@H]56)nn4)nn3)O[C@H](CO)[C@H]2O1,35.5,6.2,209,33.4,233,6.5,–
CC1(C)O[C@H]2[C@H](OCc3cn(CC(Cn4cc(CO[C@@H]5O[C@H](Cn6cc(COC[C@H]7OC(O)[C@H](O)[C@@H](O)[C@H]7O)nn6)[C@H]6OC(C)(C)O[C@@H]56)nn4)(Cn4cc(CO[C@@H]5O[C@H](Cn6cc(COC[C@H]7OC(O)[C@H](O)[C@@H](O)[C@H]7O)nn6)[C@H]6OC(C)(C)O[C@@H]56)nn4)Cn4cc(CO[C@@H]5O[C@H](Cn6cc(COC[C@H]7OC(O)[C@H](O)[C@@H](O)[C@H]7O)nn6)[C@H]6OC(C)(C)O[C@@H]56)nn4)nn3)O[C@H](Cn3cc(COC[C@H]4OC(O)[C@H](O)[C@@H](O)[C@H]4O)nn3)[C@H]2O1 (stereo partly drawn),> 500,–,> 1000,> 500,> 1000,–,> 100
CCCCn1cc(CO[C@@H]2O[C@H](Cn3cc(COC[C@@H](O)[C@H](O)[C@H](O)[C@@H](O)CO)nn3)[C@H]3OC(C)(C)O[C@@H]23)nn1,209,> 2.6,> 1000,389,> 1000,> 4.8,> 100
OC[C@H]1O[C@@H](n2cc(COCC(COCc3cn([C@@H]4O[C@H](CO)[C@@H](O)[C@H]4O)nn3)(COCc3cn([C@@H]4O[C@H](CO)[C@@H](O)[C@H]4O)nn3)COCc3cn([C@@H]4O[C@H](CO)[C@@H](O)[C@H]4O)nn3)nn2)[C@H](O)[C@@H]1O,> 500,–,> 1000,> 500,> 1000,–,–
CC1(C)O[C@@H]2[C@H](O1)[C@@H](CO)O[C@H]2n1cc(COCC(COCc2cn([C@@H]3O[C@H](CO)[C@H]4OC(C)(C)O[C@H]43)nn2)(COCc2cn([C@@H]3O[C@H](CO)[C@H]4OC(C)(C)O[C@H]43)nn2)COCc2cn([C@@H]3O[C@H](CO)[C@H]4OC(C)(C)O[C@H]43)nn2)nn1,> 500,–,> 1000,> 500,> 1000,–,–
CCCCn1cc(CO[C@@H]2O[C@H](Cn3cc(COC[C@H]4OC(O)[C@H](O)[C@@H](O)[C@H]4O)nn3)[C@H]3OC(C)(C)O[C@@H]23)nn1 (stereo partly drawn),22.1,> 48.5,> 1000,20.6,> 1000,> 45.2,> 100
CC1(C)O[C@H]2[C@H](OCc3cn(CC(Cn4cc(CO[C@@H]5O[C@H](CN=[N+]=[N-])[C@H]6OC(C)(C)O[C@@H]56)nn4)(Cn4cc(CO[C@@H]5O[C@H](CN=[N+]=[N-])[C@H]6OC(C)(C)O[C@@H]56)nn4)Cn4cc(CO[C@@H]5O[C@H](CN=[N+]=[N-])[C@H]6OC(C)(C)O[C@@H]56)nn4)nn3)O[C@H](CN=[N+]=[N-])[C@H]2O1 (stereo partly drawn),> 500,–,> 1000,> 500,> 1000,–,–
NC(=O)c1ncn([C@@H]2O[C@H](CO)[C@@H](O)[C@H]2O)n1 [RIBAVIRIN],–,15.9,307,19.2,> 400,> 21.6,–
